Structures are written as SMILES. Where a SMILES comes first, the peptide text is derived from it. Bridges are numbered along the chain shown (N, C = ends). [ ]: non-standard residue; d: D form. The star is where a group is joined. Phe(4-COOH) = N[C@@H](Cc1ccc(C(=O)O)cc1)C(=O)O; Ala(thiazol-5-yl) = N[C@@H](Cc1cncs1)C(=O)O; Phe(2,4-F2) = N[C@@H](Cc1ccc(F)cc1F)C(=O)O; Bip = N[C@@H](Cc1ccc(-c2ccccc2)cc1)C(=O)O; Phe(3-Me) = Cc1cccc(C[C@H](N)C(=O)O)c1; Val(3-OH) = CC(C)(O)[C@H](N)C(=O)O; 4Pal = N[C@@H](Cc1ccncc1)C(=O)O; Cha = N[C@@H](CC1CCCCC1)C(=O)O; Cit = NC(=O)NCCC[C@H](N)C(=O)O; dCha = N[C@H](CC1CCCCC1)C(=O)O; Carboxymethyl = O=C(O)C*; Orn = NCCC[C@H](N)C(=O)O; Dab = NCC[C@H](N)C(=O)O; Nva = CCC[C@H](N)C(=O)O; Dap = NC[C@H](N)C(=O)O; NHCH2CH2OMe = COCCN*; Propargyl = C#CC*

The experiment deals with T1, human PD-1 / PD-L1-Ig binding on Jurkat cell line over-expressing human PD-1 (Jurkat-PD-1) (Homo sapiens, UniProt Q15116).
T1 construct: expressed in transfected cells; host or cells: Jurkat
The experiment can be described thus: Jurkat-PD-1 Cell Binding High-Content Screening Assay (CBA). The experiment is classed as cell-based. Conditions: Jurkat-PD-1 cells, PE-labeled PD-L1-Ig 20 nM final; read-out: Jurkat HPD1_PDL1 IC50. Put shortly:
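Binding of fluorescent PD-L1-Ig (phycoerythrin linked via the Ig tag, 20 nM final) to PD-1-overexpressing Jurkat cells was imaged after a 2 h, 37° C compound pretreatment and 1 hour ligand incubation.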

T1 sequence (Q15116 25-288): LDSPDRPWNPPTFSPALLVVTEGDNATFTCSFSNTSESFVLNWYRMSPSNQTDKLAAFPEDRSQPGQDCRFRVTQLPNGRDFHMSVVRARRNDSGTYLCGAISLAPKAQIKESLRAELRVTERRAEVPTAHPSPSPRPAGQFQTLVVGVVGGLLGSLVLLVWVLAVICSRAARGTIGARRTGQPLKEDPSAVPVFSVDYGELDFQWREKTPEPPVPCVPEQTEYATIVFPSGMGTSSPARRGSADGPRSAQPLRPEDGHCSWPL

What is called IC50 is the concentration at which inhibition is half-maximal. Consider `CC(C)C[C@H]1NC(=O)[C@H](CCCN)NC(=O)[C@H](CCC(=O)O)NC(=O)[C@H](Cc2ccc(-c3ccccc3)cc2)NC(=O)[C@H](C(C)C)NC(=O)[C@H](Cc2c[nH]c3ccccc23)NC(=O)[C@H](CC(=O)O)NC(=O)[C@H](Cc2ccc(OCC(=O)O)cc2)NC(=O)[C@H](CN)NC(=O)CSC[C@@H](C(=O)N[C@@H](C)C(N)=O)NC(=O)[C@H]([C@@H](C)O)NC(=O)[C@H](C(C)C)NC(=O)[C@H](Cc2cncs2)NC(=O)[C@H](CCN)NC1=O` [Compound 1503] ({CH2CO}-[Dap]Y(Carboxymethyl)DWV[Bip]E[Orn][dL][Dab][Ala(thiazol-5-yl)]VTCA-NH2; thioether N-14), for which the IC50 came out at 42.8 nM.
Then `CC(C)C[C@H]1NC(=O)[C@H](CCCN)NC(=O)[C@H](C(C)C)NC(=O)[C@H](Cc2ccc(-c3ccccc3)cc2)NC(=O)[C@H](C(C)C)NC(=O)[C@H](Cc2c[nH]c3ccccc23)NC(=O)[C@H](CC(=O)O)NC(=O)[C@H](Cc2ccc(OCC(=O)O)cc2)NC(=O)[C@H](Cc2ccc(OCC(=O)O)cc2)NC(=O)CSC[C@@H](C(=O)N[C@@H](C)C(N)=O)NC(=O)[C@H]([C@@H](C)O)NC(=O)[C@H](C(C)C)NC(=O)[C@H](CC2CCCCC2)NC(=O)[C@H](CCN)NC1=O` [Compound 1690], with 12.4 nM; and `CC(C)C[C@@H]1NC(=O)[C@H](CCN)NC(=O)[C@@H](CC(C)C)NC(=O)[C@H](CCCN)NC(=O)[C@H](CCCNC(N)=O)NC(=O)[C@H](Cc2ccc(-c3ccccc3)cc2)NC(=O)[C@H](C(C)C)NC(=O)[C@H](Cc2c[nH]c3ccccc23)NC(=O)[C@H](CC(=O)O)NC(=O)[C@H](Cc2ccc(O)cc2)NC(=O)[C@H](CC(N)=O)NC(=O)CSC[C@@H](C(=O)NCC(N)=O)NC(=O)[C@H](CO)NC(=O)[C@H](C(C)C)NC1=O` [Compound 1112] ({CH2CO}-NYDWV[Bip][Cit][Orn][dL][Dab]LVSCG-NH2; thioether N-14), with 17.1 nM.
Regarding `CC(C)C[C@H]1NC(=O)[C@H](CCCN)NC(=O)[C@H](CCC(=O)O)NC(=O)[C@H](Cc2ccc(-c3ccccc3)cc2)NC(=O)[C@H](C(C)C)NC(=O)[C@H](Cc2c[nH]c3ccccc23)NC(=O)[C@H](CC(=O)O)NC(=O)[C@H](Cc2ccc(C(=O)O)cc2)NC(=O)[C@H](CN)NC(=O)CSC[C@@H](C(=O)N[C@@H](C)C(N)=O)NC(=O)[C@H]([C@@H](C)O)NC(=O)[C@H](C(C)C)NC(=O)[C@H](CC2CCCCC2)NC(=O)[C@H](CCN)NC1=O` [Compound 2159], the IC50 was 10.4 nM.
Consider `C#CCOc1ccc(C[C@@H]2NC(=O)[C@H](Cc3ccc(-c4ccccc4)cc3)NC(=O)[C@H](Cc3ccc(OCC(=O)O)cc3)NC(=O)[C@H](Cc3cccc(C)c3)NC(=O)[C@H](CC(=O)O)NC(=O)[C@H](Cc3ccc(OCC(=O)O)cc3)NC(=O)[C@H](CCC)NC(=O)CSC[C@@H](C(=O)N[C@@H](CCN)C(N)=O)NC(=O)[C@H](CCC(=O)O)NC(=O)[C@H](C(C)C)NC(=O)[C@H](CC3CCCCC3)NC(=O)[C@H](CCN)NC(=O)[C@@H](CC(C)C)NC(=O)[C@H](CCCN)NC2=O)cc1` [Compound 1837] ({CH2CO}-[Nva]Y(Carboxymethyl)D[Phe(3-Me)]Y(Carboxymethyl)[Bip]Y(Propargyl)[Orn][dL][Dab][Cha]VEC[Dab]-NH2; thioether N-14), for which the IC50 amounted to 8.3 nM.
Consider `COCCNC(=O)[C@H](CCN)NC(=O)[C@@H]1CSCC(=O)N[C@@H](Cc2ccncc2)C(=O)N[C@@H](Cc2ccc(C(=O)O)cc2)C(=O)N[C@@H](CC(=O)O)C(=O)N[C@@H](Cc2cccc(C)c2)C(=O)N[C@@H](Cc2ccc(OCC(=O)O)cc2)C(=O)N[C@@H](Cc2ccc(-c3ccccc3)cc2)C(=O)N[C@@H](Cc2ccc(OCC(=O)O)cc2)C(=O)N[C@@H](CCCN)C(=O)N[C@H](CC(C)C)C(=O)N[C@@H](CCN)C(=O)N[C@@H](CC2CCCCC2)C(=O)N[C@@H](C(C)(C)O)C(=O)N[C@@H](CO)C(=O)N1` [Compound 2076] ({CH2CO}-[4Pal][Phe(4-COOH)]D[Phe(3-Me)]Y(Carboxymethyl)[Bip]Y(Carboxymethyl)[Orn][dL][Dab][Cha][Val(3-OH)]SC[Dab]-NHCH2CH2OMe; thioether N-14), for which the IC50 was 240 nM.
In the case of `CC(C)C[C@@H]1NC(=O)[C@H](Cc2c[nH]c3ccccc23)NC(=O)[C@H](CC(=O)O)NC(=O)[C@H](Cc2ccc(O)cc2)NC(=O)[C@H](Cc2ccccc2)NC(=O)CSC[C@@H](C(=O)N[C@@H](C)C(N)=O)NC(=O)[C@H](CO)NC(=O)[C@H](C(C)C)NC(=O)[C@H](CC(C)C)NC(=O)[C@H](CCN)NC(=O)[C@@H](C)NC(=O)[C@H](CCN)NC(=O)[C@H](C(C)C)NC(=O)[C@H](Cc2ccc(-c3ccccc3)cc2)NC1=O` [Compound 1104] ({CH2CO}-FYDWL[Bip]V[Dab][dA][Dab]LVSCA-NH2; thioether N-14), the IC50 is 43.6 nM.
Then `CC(C)C[C@H]1NC(=O)[C@H](CCCN)NC(=O)[C@H](CCC(=O)O)NC(=O)[C@H](Cc2ccc(-c3ccccc3)cc2)NC(=O)[C@H](C(C)C)NC(=O)[C@H](Cc2c[nH]c3ccccc23)NC(=O)[C@H](CC(=O)O)NC(=O)[C@H](Cc2ccc(OCC(=O)O)cc2)NC(=O)[C@H](CN)NC(=O)CSC[C@@H](C(=O)N[C@@H](C)C(N)=O)NC(=O)[C@H]([C@@H](C)O)NC(=O)[C@H](C(C)C)NC(=O)[C@H](Cc2ccc(F)cc2F)NC(=O)[C@H](CCN)NC1=O` [Compound 1479] ({CH2CO}-[Dap]Y(Carboxymethyl)DWV[Bip]E[Orn][dL][Dab][Phe(2,4-F2)]VTCA-NH2; thioether N-14), with 347 nM; and `CC(C)C[C@H]1NC(=O)[C@H](CCCN)NC(=O)[C@H](CCC(=O)O)NC(=O)[C@H](Cc2ccc(-c3ccccc3)cc2)NC(=O)[C@H](C(C)C)NC(=O)[C@H](Cc2cccc(C(F)(F)F)c2)NC(=O)[C@H](CC(=O)O)NC(=O)[C@H](Cc2ccc(OCC(=O)O)cc2)NC(=O)[C@H](Cc2cccnc2)NC(=O)CSC[C@@H](C(=O)N[C@@H](C)C(N)=O)NC(=O)[C@H]([C@@H](C)O)NC(=O)[C@H](C(C)C)NC(=O)[C@H](CC2CCCCC2)NC(=O)[C@H](CCN)NC1=O` [Compound 1502], with 16.8 nM; and `CC(C)C[C@@H]1NC(=O)[C@H](CC(N)=O)NC(=O)[C@@H](CC(C)C)NC(=O)[C@H](CN)NC(=O)[C@H](C(C)C)NC(=O)[C@H](Cc2ccc(-c3ccccc3)cc2)NC(=O)[C@H](C(C)C)NC(=O)[C@H](Cc2c[nH]c3ccccc23)NC(=O)[C@H](CC(=O)O)NC(=O)[C@H](Cc2ccncc2)NC(=O)[C@H](Cc2ccc(OCC(=O)O)cc2)NC(=O)CSC[C@@H](C(=O)NCC(N)=O)NC(=O)[C@H](CO)NC(=O)[C@H](C(C)C)NC1=O` [Compound 1290] ({CH2CO}-Y(Carboxymethyl)[4Pal]DWV[Bip]V[Dap][dL]NLVSCG-NH2; thioether N-14), with 50.6 nM.
To `Cc1cccc(C[C@@H]2NC(=O)[C@H](CC(=O)O)NC(=O)[C@H](Cc3ccc(C(=O)O)cc3)NC(=O)[C@H](Cc3ccncc3)NC(=O)CSC[C@@H](C(N)=O)NC(=O)[C@H](CCC(N)=O)NC(=O)[C@H](C(C)C)NC(=O)[C@H](CC3CCCCC3)NC(=O)[C@H](CCN)NC(=O)[C@@H](CC(C)C)NC(=O)[C@H](CCCN)NC(=O)[C@H](CCCNC(N)=O)NC(=O)[C@H](Cc3ccc(-c4ccccc4)cc3)NC(=O)[C@H](C(C)C)NC2=O)c1` [Compound 2272] ({CH2CO}-[4Pal][Phe(4-COOH)]D[Phe(3-Me)]V[Bip][Cit][Orn][dL][Dab][Cha]VQC-NH2; thioether N-14) belongs 32 nM; to `CC[C@H](C)[C@@H]1NC(=O)[C@H](Cc2ccc(-c3ccccc3)cc2)NC(=O)[C@H](C(C)C)NC(=O)[C@H](Cc2cccc(C)c2)NC(=O)[C@H](CC(=O)O)NC(=O)[C@H](Cc2ccc(C(=O)O)cc2)NC(=O)[C@H](Cc2ccncc2)NC(=O)CSC[C@@H](C(N)=O)NC(=O)[C@H]([C@@H](C)O)NC(=O)[C@H](C(C)C)NC(=O)[C@H](CC2CCCCC2)NC(=O)[C@H](CCN)NC(=O)[C@@H](CC(C)C)NC(=O)[C@H](CCCN)NC1=O` [Compound 1547] ({CH2CO}-[4Pal][Phe(4-COOH)]D[Phe(3-Me)]V[Bip]I[Orn][dL][Dab][Cha]VTC-NH2; thioether N-14), 15.9 nM.
To `CC(C)[C@@H]1NC(=O)[C@H](Cc2c[nH]c3ccccc23)NC(=O)[C@H](CC(=O)O)NC(=O)[C@H](Cc2ccc(OCC(=O)O)cc2)NC(=O)[C@H](CN)NC(=O)CSC[C@@H](C(=O)N[C@@H](C)C(N)=O)NC(=O)[C@H]([C@@H](C)O)NC(=O)[C@H](C(C)C)NC(=O)[C@H](CC2CCCCC2)NC(=O)[C@H](CCN)NC(=O)[C@@H](CC2CCCCC2)NC(=O)[C@H](CCCN)NC(=O)[C@H](CCC(=O)O)NC(=O)[C@H](Cc2ccc(-c3ccccc3)cc2)NC1=O` [Compound 1443] ({CH2CO}-[Dap]Y(Carboxymethyl)DWV[Bip]E[Orn][dCha][Dab][Cha]VTCA-NH2; thioether N-14) belongs 11.8 nM; to `Cc1cccc(C[C@@H]2NC(=O)[C@H](CC(=O)O)NC(=O)[C@H](Cc3ccc(OCC(=O)O)cc3)NC(=O)[C@H](CN)NC(=O)CSC[C@@H](C(=O)N[C@@H](CCCN)C(N)=O)NC(=O)[C@H]([C@@H](C)O)NC(=O)[C@H](C(C)C)NC(=O)[C@H](CC3CCCCC3)NC(=O)[C@H](CCN)NC(=O)[C@@H](CC(C)C)NC(=O)[C@H](CCCN)NC(=O)[C@H](CCCNC(N)=O)NC(=O)[C@H](Cc3ccc(-c4ccccc4)cc3)NC(=O)[C@H](C(C)C)NC2=O)c1` [Compound 2011] ({CH2CO}-[Dap]Y(Carboxymethyl)D[Phe(3-Me)]V[Bip][Cit][Orn][dL][Dab][Cha]VTC[Orn]-NH2; thioether N-14), 11.9 nM.
